The source of these data is patent US20100305087A1, “ACTIVE PHARMACEUTICAL INGREDIENT ON A SOLID SUPPORT, AMORPHOUS AND WITH AN IMPROVED SOLUBILITY” (Lek Pharmaceuticals d.d., priority 2007, published 2010).

For data set [1] the following is noted: cited from earlier work.
A short description of data set [2]: Dissolution profile of atovaquone preparations in 10 mM triethylamine/HCl (pH=10) buffer. It counts as physicochemical.
Data set [3] can be described thus: Dissolution profile of ezetimibe preparations in water (amount dissolved over time). Format: physicochemical. An excerpt: The results are shown in Tables 1 to 3, and FIGS. 1 to 3.

`O=C1C(=O)c2ccccc2C(O)=C1C1CCC(c2ccc(Cl)cc2)CC1` (centres unmarked) [atovaquone, 3-[4-(4-chlorophenyl)cyclohexyl]-4-hydroxy-naphthalene-1,2-dione]: the “log P/hydrophobicity value” in data set [1] is reported as 5.251.

For `O=C1[C@H](CC[C@H](O)c2ccc(F)cc2)[C@@H](c2ccc(O)cc2)N1c1ccc(F)cc1` [ezetimibe, 1-(4-fluorophenyl)-3-[3-(4-fluorophenyl)-3-hydroxy-propyl]-4-(4-hydroxyphenyl)-azetidin-2-one], the “log P/hydrophobicity value” in data set [1] is reported as 4.584.

Consider `O=C1C(=O)c2ccccc2C(O)=C1C1CCC(c2ccc(Cl)cc2)CC1` (centres unmarked) [Crystalline atovaquone, 3-[4-(4-chlorophenyl)cyclohexyl]-4-hydroxy-naphthalene-1,2-dione], for which the Amount dissolved in data set [2] (Atovaquone and Aerosil 200, time 10 min) stood at 0.16 µg/mL; in data set [2] (Atovaquone and Aerosil 200, time 20 min), 0.7 µg/mL; in data set [2] (Atovaquone and Aerosil 200, time 60 min), 4.1 µg/mL; in data set [2] (Atovaquone and Aerosil 200, time 100 min), 6.2 µg/mL.

For `O=C1[C@H](CC[C@H](O)c2ccc(F)cc2)[C@@H](c2ccc(O)cc2)N1c1ccc(F)cc1` [Amorphous ezetimibe, 1-(4-fluorophenyl)-3-[3-(4-fluorophenyl)-3-hydroxy-propyl]-4-(4-hydroxyphenyl)-azetidin-2-one], the Amount dissolved was 0.19 µg/mL in data set [3] (Ezetimibe and Aerosil 200, time 10 min); 0.20 µg/mL in data set [3] (Ezetimibe and Aerosil 200, time 20 min); 0.27 µg/mL in data set [3] (Ezetimibe and Aerosil 200, time 45 min); 0.41 µg/mL in data set [3] (Ezetimibe and Aerosil 200, time 100 min).

For the molecule `O=C1[C@H](CC[C@H](O)c2ccc(F)cc2)[C@@H](c2ccc(O)cc2)N1c1ccc(F)cc1` [Crystalline ezetimibe, 1-(4-fluorophenyl)-3-[3-(4-fluorophenyl)-3-hydroxy-propyl]-4-(4-hydroxyphenyl)-azetidin-2-one], the Amount dissolved in data set [3] (Ezetimibe and Prosolv, time 10 min) came out at 0.08 µg/mL; in data set [3] (Ezetimibe and Prosolv, time 20 min), 0.13 µg/mL; in data set [3] (Ezetimibe and Prosolv, time 60 min), 0.12 µg/mL; in data set [3] (Ezetimibe and Prosolv, time 100 min), 0.25 µg/mL.
